For three compounds, Kd results are on record in ChEMBL document CHEMBL5729128, “Phenyl and pyridinyl substituted imidazoles as modulators of RORγT” (2022).

The test addresses T1, Nuclear receptor ROR-gamma (Homo sapiens, UniProt P51449).
T1 sequence (P51449 whole entry): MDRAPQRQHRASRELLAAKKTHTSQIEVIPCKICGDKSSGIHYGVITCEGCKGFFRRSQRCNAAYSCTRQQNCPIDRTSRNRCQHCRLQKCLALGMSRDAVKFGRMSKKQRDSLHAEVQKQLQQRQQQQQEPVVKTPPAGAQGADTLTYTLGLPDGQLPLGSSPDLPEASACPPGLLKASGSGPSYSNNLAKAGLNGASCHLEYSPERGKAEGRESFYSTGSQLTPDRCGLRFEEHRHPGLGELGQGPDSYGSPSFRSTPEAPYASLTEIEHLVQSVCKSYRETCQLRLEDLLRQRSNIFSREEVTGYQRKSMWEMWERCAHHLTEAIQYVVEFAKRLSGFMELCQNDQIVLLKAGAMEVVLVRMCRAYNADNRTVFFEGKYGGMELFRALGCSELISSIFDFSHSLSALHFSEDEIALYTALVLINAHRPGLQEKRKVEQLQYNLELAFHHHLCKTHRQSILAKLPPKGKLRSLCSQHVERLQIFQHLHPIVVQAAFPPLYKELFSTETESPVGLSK
Put plainly: Fluorescence Based Assay: ThermoFluor is a fluorescence based assay that estimates ligand binding affinities by measuring the effect of a ligand on protein thermal stability (Pantoliano, M. W., Petrella, E. C., Kwasnoski, J. D., Lobanov, V. S., Myslik, J., Graf, E., Carver, T., Asel, E., Springer, B. A., Lane, P., and Salemme, F. R. (2001) High-density miniaturized thermal shift assays as a general strategy for drug discovery. J Biomol Screen 6, 429-40, and Matulis, D., Kranz, J. K., Salemme, F. R., and Todd, M. J. (2005) Thermodynamic stability of carbonic anhydrase: measurements of binding affinity and stoichiometry using ThermoFluor. Biochemistry 44, 5258-66). This approach is applicable to a wide variety of systems, and rigorous in theoretical interpretation through quantitation of equilibrium binding constants (KD).
Broadly, the Kd is the free concentration of one partner at which half of the binding sites on the other are occupied at equilibrium, for simple one-to-one binding. Regarding `CCc1nc(C(=O)NC[C@]2(O)CC[C@@H](S(C)(=O)=O)CC2)c(Cl)n1-c1ncc(CCCC(F)(F)F)cc1OC(F)F`, the Kd is 87 nM.

Regarding `CCc1nc(C(=O)NC[C@H]2CC[C@H](S(C)(=O)=O)CC2)c(Cl)n1-c1ncc(CCCC(F)(F)F)cc1OC(F)F`, the Kd is 15 nM.

As to `CCc1nc(C(=O)NC[C@]2(O)CC[C@@H](S(C)(=O)=O)CC2)c(C)n1-c1ncc(CC(C)(C)C(F)(F)F)cc1OC(F)F`, the equilibrium dissociation constant (Kd) is 23 nM.
